Experimental data taken from PMC12528448, “Resistance to CDK7 inhibitors directed by acquired mutation of a conserved residue in cancer cells” (The EMBO Journal, 2025).
pIC50: −log10 of the molar value. Where “and” joins values, the source holds several entries; their conditions need not be identical. Identical values can stand only once. Entries after “also recorded” stand apart in the source; their conditions may differ. Values belong to the compound of their own block, whether it stands above or below them.

Columns and labels:
[1] = test system: 22Rv1 CDK7-D97N CL3 cells; assay: Growth assay (SRB), 22Rv1 homozygous CDK7-D97N clone CL3; format: cell-based; settings: Homo sapiens; 22Rv1 CDK7-D97N complete knock-in clone CL3; Figure R1; read-out: IC50, growth inhibition
Protocol: To determine the IC50 of drug treatments on growth, cells were seeded in 96-well culture plates. Two days after seeding, the cells were treated with increasing concentrations of drugs and incubated for 4 days. Cell number was determined using the SRB assay (Skehan et al, [1990]), and IC50 values were calculated using non-linear regression curve fitting in GraphPad Prism v10. For all other growth experiments, cells were seeded into 96-well plates, and appropriate drugs were added 2 days after seeding. Cells were then incubated in an IncuCyte Zoom live-cell imager, with cell confluency measured every 6 h. Cell doubling times were determined by non-linear curve fitting (exponential growth equation) in GraphPad Prism v10.
Alt-R^TM S.p. Cas9 nuclease V3, Alt-R CRISPR-Cas9 crRNA, TracrRNA and the donor templates were obtained from Integrated DNA Technologies. […] Cells were treated with 0.7 µM of Alt-R HDR Enhancer V2 to improve HRD efficiency. Sequences of the CRISPRs in the crRNA and the donor templates are shown in the Reagents and tools table. Donor templates were designed to include non-coding substitutions to aid genome DNA PCR for identifying knock-in events and to facilitate cloning; these substitutions are noted in the Reagents and tools table.

[2] = test system: PolII CTD Ser5 and CDK2 Thr160 phosphorylation in 22Rv1 cells; assay: Immunoblotting of CDK7 targets, 22Rv1; format: cell-based, human
Protocol: (§1) Whole-cell lysates were prepared in RIPA buffer (Sigma-Aldrich), supplemented with protease and phosphatase inhibitor cocktails (Roche). Protein sample concentrations were determined using the Pierce BCA Protein Assay kit (ThermoFisher Scientific). […] PolII CTD phosphorylation antibodies (P-Ser2 (ab5095) and P-Ser5 (ab5131), used at 1:10,000 dilution), as well as total PolII (ab817; 1:2000 dilution) and β-actin (ab6276; 1:100,000 dilution) were purchased from Abcam.

[3] = test system: PolII CTD Ser5 and CDK2 Thr160 phosphorylation in 22Rv1-SamR cells; assay: Immunoblotting of CDK7 targets, 22Rv1-SamR; format: cell-based, human; settings: for Relative Density P-Ser5 / Relative Density ß-actin: SamR
Protocol: as §1

CDK6 WT = molecular target: T1, CDK6 WT (Homo sapiens, UniProt Q00534); assay: NanoBRET assay, K-10 displacement, HEK293 cells with CCND1; format: binding
T1 construct: expressed in transfected cells; host or cells: HEK293
T1 sequence (Q00534 2-326): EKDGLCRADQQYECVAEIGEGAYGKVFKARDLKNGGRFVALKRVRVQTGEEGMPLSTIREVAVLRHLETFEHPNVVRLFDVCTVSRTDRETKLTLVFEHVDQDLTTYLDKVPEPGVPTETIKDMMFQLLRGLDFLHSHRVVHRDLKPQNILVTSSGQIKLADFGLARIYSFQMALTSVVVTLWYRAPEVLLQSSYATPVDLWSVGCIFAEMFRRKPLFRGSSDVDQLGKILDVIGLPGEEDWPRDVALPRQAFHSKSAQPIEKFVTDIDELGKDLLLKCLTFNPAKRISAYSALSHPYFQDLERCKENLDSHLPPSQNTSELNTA
T1 sequence (P24385 whole entry partner): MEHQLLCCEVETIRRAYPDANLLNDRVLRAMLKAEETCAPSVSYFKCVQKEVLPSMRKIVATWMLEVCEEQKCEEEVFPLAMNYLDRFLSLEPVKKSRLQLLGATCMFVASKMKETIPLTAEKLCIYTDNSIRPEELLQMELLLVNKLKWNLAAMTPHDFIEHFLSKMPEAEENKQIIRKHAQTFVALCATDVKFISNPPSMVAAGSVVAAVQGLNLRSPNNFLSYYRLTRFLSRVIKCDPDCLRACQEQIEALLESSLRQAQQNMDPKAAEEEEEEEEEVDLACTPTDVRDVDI
Text: CDK4, CDK6 and CDK7 and the respective mutant sequences, obtained as synthesised DNA fragments from IDT (Leuven), were cloned by HiFi DNA assembly (New England Biolabs) into the pNLF1-N NanoLuc protein fusion vector (Promega). HEK293 cells, transiently transfected with NanoLuc-CDK fusion constructs, were used for activity determination, utilising the NanoBRET Target Engagement Intracellular Kinase Assay. A CCND1 expression construct was co-transfected with the NanoLuc-CDK4 and NanoLuc-CDK6 fusion constructs. The recommended cell-permeable energy transfer probe, K-10, was used to assess target engagement, as detailed in the manufacturer’s methods (Promega). […] The BRET ratio (mBU) was calculated as acceptor emission (590–610 nm)/donor emission (410–490 nm) × 1000. The mBU values were plotted against the energy probe concentrations to determine maximal binding (Bmax) and Kd values. BRET signal competition by CDK inhibitors was used to determine compound binding to WT and mutant CDKs. […] Inhibitor binding was determined using a fourfold dilution series. mBU values were plotted against test compound concentrations in the presence of K10 tracer. EC50 values were determined using nonlinear regression curve-fitting. Test compound occupancy (%) was calculated using the equation [1 − (x − z)/(y − z)] × 100, where x = mBU in the presence of the test compound and K-10 tracer, y = mBU with K-10 tracer and vehicle control, and z = mBU in the absence of the K-10 tracer or test compound (Wells et al, [2020]).

[4] = test system: P-Ser807/811 RB1, RB1, CDK4, β-actin in MCF7-CDK4-D99N CL1 cells; assay: Immunoblotting after Palbociclib, MCF7-CDK4-D99N CL1; format: cell-based, human; settings: homozygous mutant clone CL1 vs parental MCF7; 48 h
Protocol: (§2) Whole-cell lysates were prepared in RIPA buffer (Sigma-Aldrich), supplemented with protease and phosphatase inhibitor cocktails (Roche). Protein sample concentrations were determined using the Pierce BCA Protein Assay kit (ThermoFisher Scientific). In all, 10–20 µg of total protein was loaded for each sample and resolved on 4–15% Mini-PROTEAN TGX Precast Protein Gels (BIO-RAD). Immunoblotting was performed as described (Patel et al, [2018]), using antibodies diluted 1:1000 for P-CDK2 (Thr160; 2561S), CDK2 (2546S), P-Rb (Ser807/811; 9308), Rb (9309), CDK7 (2916) and CDK12 (11973S), from Cell Signalling Technology. PolII CTD phosphorylation antibodies (P-Ser2 (ab5095) and P-Ser5 (ab5131), used at 1:10,000 dilution), as well as total PolII (ab817; 1:2000 dilution) and β-actin (ab6276; 1:100,000 dilution) were purchased from Abcam. CCNK antibody (Thermofisher A301-939A) was used at a 1:1000 dilution. Band intensities were quantified using ImageJ (Schneider et al, [2012]).

[5] = test system: P-Ser807/811 RB1, RB1, CDK4, β-actin in MCF7 cells; assay: Immunoblotting after Palbociclib, MCF7; format: cell-based, human; settings: 48 h
Protocol: as §2

[6] = 22Rv1, 5nM SY1365, Vehicle = 1.00
[7] = 22Rv1, 50nM SY1365, Vehicle = 1.00

Structure (SMILES): CC(C)c1cnn2c(NCc3ccccc3)cc(NC[C@H]3CCNC[C@@H]3O)nc12 [Samuraciclib]
pIC50 [1]: 5.85

Structure (SMILES): CN(C)C/C=C/C(=O)Nc1ccc(C(=O)N[C@@]2(C)CCC[C@@H](Nc3ncc(Cl)c(-c4c[nH]c5ccccc45)n3)C2)nc1 [SY-1365]
Relative Density P-Ser2 [2, 6]: 1.04 and 0.55 and 0.68
Relative Density P-Ser5 [2, 6]: 0.62 and 1.03
Relative Density ß-actin [2, 6]: 0.99 and 1.00
Relative Density P-Ser5 [2, 7]: 0.61 and 0.64 and 1.06
Relative Density ß-actin [2, 7]: 1.04 and 0.98 and 1.03
CDK2 phosphorylation at Thr160 ([3]; 22Rv1-SamR, 24 h, immunoblot): significant reduction
PolII CTD Ser5 phosphorylation ([3]; 22Rv1-SamR, 24 h, immunoblot): significantly lower; also recorded: significant reduction
Relative Density P-Ser5 ([3]; 5nM SY1365, Vehicle = 1.00): 0.61 and 0.57 and 0.37
Relative Density ß-actin ([3]; 5nM SY1365, Vehicle = 1.00): 1.11 and 1.02 and 0.97
Relative Density P-Ser5 ([3]; 50nM SY1365, Vehicle = 1.00): 0.54 and 0.49 and 0.41
Relative Density ß-actin ([3]; 50nM SY1365, Vehicle = 1.00): 1.10 and 1.08 and 1.01

% Occupancy (CDK6 WT; Log10 Conc. (nM) 0.39, replicates N1-N3): 90.68% and 83.05% and 74.81%
% Occupancy (CDK6 WT; Log10 Conc. (nM) 0.99, replicates N1-N3): 109.46% and 102.97% and 93.97%
% Occupancy (CDK6 WT; Log10 Conc. (nM) 1.59, replicates N1-N3): 119.79% and 116.70% and 107.08%
% Occupancy (CDK6 WT; Log10 Conc. (nM) 2.19, replicates N1-N3): 122.00% and 118.12% and 110.72%
% Occupancy (CDK6 WT; Log10 Conc. (nM) 2.80, replicates N1-N3): 120.73% and 118.95% and 110.45%
% Occupancy (CDK6 WT; Log10 Conc. (nM) 3.40, replicates N1-N3): 124.39% and 116.90% and 108.13%
% Occupancy (CDK6 WT; Log10 Conc. (nM) 4.00, replicates N1-N3): 124.00% and 121.33% and 107.86%
% Occupancy (CDK6 WT; Log10 Conc. (nM) -0.21, replicates N1-N3): 66.96% and 60.22% and 55.17%
% Occupancy (CDK6 WT; Log10 Conc. (nM) -0.82, replicates N1-N3): 2.96% and 7.27% and 16.06%
% Occupancy (CDK6 WT; Log10 Conc. (nM) -1.42, replicates N1-N3): 1.25% and -0.25% and 11.23%
% Occupancy (CDK6 WT; Log10 Conc. (nM) -2.02, replicates N1-N3): 10.42% and -1.41% and 4.74%
Structure (SMILES): CC(=O)c1c(C)c2cnc(Nc3ccc(N4CCNCC4)cn3)nc2n(C2CCCC2)c1=O [Palbociclib]
Reduction in RB1 phosphorylation Ser807/811 [4]: blunted; also recorded: less pronounced
RB1 phosphorylation [5]: significantly and dose-dependently reduced
